Series [1] can be described thus: Pharmacokinetics of LW105-1-1 in mice. The format is in vivo. Conditions: plasma, male C57BL/6 mice; for AUC(0-t): male, C57BL/6, mouse; for MRT last: read-out: MRT0-last; for bioavailability: after dose standardization, read-out: F% (absolute bioavailability); for Cmax: read-out: Cmax (head printed as image). On the procedure:
18 male C57BL/6 mice were intragastrically or intravenously administered with compound LW105-1-1 (Table 3).
The preparation containing 5% DMA and 20% HPbCD aqueous solution as a solvent was administered by intravenous injection, and a preparation containing a solution comprising 5% DMA, 20% HPbCD and 0.1% CREMOPHOR EL as a solution was intragastrically administered. The animal strain was male C57BL/6 mice. Prior to the animal experiment, all animals were fasted and fed 4 hours after dosing; all animals were given free access to water.
Intravenous administration group: before administration, 0.083, 0.25, 0.5, 1, 2, 4, 8 and 24 hours after.
Oral administration group: before administration, 0.25, 0.5, 1, 2, 4, 8 and 24 hours after
Whole blood samples (0.03 mL) were collected from the saphenous vein at the indicated time (or other suitable blood collection sites), and all blood samples were added to a plastic centrifuge tube pre-filled with K2-EDTA anticoagulant and labeled. After the blood sample was collected, centrifuged for 10 minutes under 2 to 8° C. at 3000 g, and the supernatant plasma was aspirated, and quickly placed in dry ice, and kept at −20° C. or lower for LC-MS/MS analysis.
The concentrations of all samples were analyzed using LC-MS/MS. Plasma mean concentrations were processed using a non-compartmental model of WinNonlin™ Version 6.3 (Pharsight, Mountain View, Calif.) pharmacokinetic software, and pharmacokinetic parameters were calculated by linear logarithmic trapezoidal method.

A further series addresses T1, IDO1 (Homo sapiens, UniProt P14902).
T1 construct: purchased NTRC NTRC-hTDO-1K
Briefly: IDO1 enzyme activity test (NFK Green). The format is biochemical. Particulars: 10 nM IDO1, 100 uM L-tryptophan, NFK green fluorescence; read-out: IDO IC50. Here is the method: 1. IDO1 Enzyme Activity Test Method (NFK Green)
Content of research: the inhibitory effect of the compound on the activity of IDO1 enzyme was examined.
IDO assay kit (NTRC, Cat. No. NTRC-hTDO-1K), DMSO (Sigma, Cat. No. D2650), 384-well plate_compound dilution plate (Greiner, Cat. No. 781280), 384-well plate_test plate (Perkin Elmer, Cat. No. 6007299)
10 nM IDO1 was incubated with compound or DMSO at 23° C. for 30 minutes, and L-type tryptophan was added at a final concentration of 100 uM and reacted for 1.5 hours. NFK green was added and incubated at 37° C. for 4 hours, and fluorescence signal data (excitation band, 400/25; emission band, 510/20) was corrected with Envision. Data analysis and mapping was conducted by XLfit5 software.
The test compounds and the reference compound LW3018 were finally tested at concentrations ranging from […] to 0.51 nM, 3-fold gradient dilution, 10 concentrations, and two replicate wells.

In the next series the target is T2, IDO1 in Hela cells (Homo sapiens, UniProt P14902).
T2 construct: endogenous in cells; host or cells: Hela cells, IFN-gamma stimulated
T2 sequence (P14902 whole entry): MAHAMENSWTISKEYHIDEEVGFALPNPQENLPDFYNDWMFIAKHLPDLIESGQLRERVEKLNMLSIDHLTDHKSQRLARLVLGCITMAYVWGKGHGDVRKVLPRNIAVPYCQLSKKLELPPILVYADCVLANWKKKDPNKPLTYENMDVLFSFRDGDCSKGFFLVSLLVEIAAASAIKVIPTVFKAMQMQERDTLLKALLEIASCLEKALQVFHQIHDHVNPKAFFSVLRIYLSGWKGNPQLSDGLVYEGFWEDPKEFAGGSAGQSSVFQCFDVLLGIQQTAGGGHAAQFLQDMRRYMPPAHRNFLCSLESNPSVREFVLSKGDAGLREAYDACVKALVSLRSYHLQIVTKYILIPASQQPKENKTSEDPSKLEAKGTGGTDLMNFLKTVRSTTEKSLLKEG
As to the kind of experiment: IDO cytology test (LC-MS), kynurenine in IFN-gamma-stimulated Hela cells. The format is cell-based. Conditions: interferon gamma 100 ng/mL, 20 h, kynurenine by LC/MS. The text has this:
2. IDO Cytology Test Method (LC-MS)
Content of research: the inhibitory effect of the compound on the activity of IDO1 in Hela cells was examined.
RPMI 1640 (phenol red free) medium (Invitrogen Cat. No. 11835030), fetal bovine serum (Invitrogen Cat. No. 10099141), penicillin and streptomycin (Invitrogen Gibco Cat. No. 15140-122), recombinant human interference γ (R&D system, Cat. No. 285-IF-100). 5% (w/v) trichloroacetic acid (Alfa Aesar Cat. No. A11156), DMSO (Sigma, Cat. No. D2650), 96-well plate_compound dilution plate (Axygen, Cat. No. WIPP02280), 96-well plate_test plate (Greiner, Cat. No. 655090)
The test compounds and the reference compound LW3018 were finally tested at concentrations ranging from […] to 0.76 nM, 3-fold gradient dilution, 9 concentrations, and two replicate wells.
Hela cells were plated in 96-well cell culture plates at a number of 40,000 cells per well, and incubated with RPMI 1640 containing 10% fetal bovine serum for 5-6 hours. The diluted test compound and recombinant human interferon gammaa (final concentration at 100 ng/mL) were added to activate IDO1 expression. The cells were cultured in a 37° C. cell incubator which was enriched with 5% carbon dioxide for 20 hours, and the reaction was stopped with 5% trichloroacetic acid and incubated for 30 minutes at 50° C. After the cell culture solution was precipitated, the supernatant was sent to LC/MS to detect the content of kynurenine. Data analysis and mapping was conducted by XLfit5 software.

Series [2] concerns mouse colorectal cancer CT26 transplanted tumor. As to the kind of experiment: In vivo efficacy test of mouse colorectal cancer CT26 transplanted tumor. On the procedure: Example 5 In Vivo Efficacy Test of Mouse Colorectal Cancer CT26 Transplanted Tumor
Under sterile conditions, CT26 cells in the proliferative phase were harvested, cell concentration was adjusted after digestion, and inoculated into the right hind limb of the mouse. Each mouse was inoculated with 1×10^5 CT26 cells in an inoculation volume of 0.1 mL. Four days after the inoculation, the average tumor volume was close to 20-30 mm^3, and the mouse was administered in a randomized group. The day of administration was recorded as DO, and the negative control was given same amount of vehicle. Co-administration of LW 105-1-1 with Anti-CTLA4 antibody was also tested in this experiment. After the administration was started, the tumor long diameter and short diameter were measured 3 times per week.

Where two headings read alike, the source gives them in different places.

From patent US11370766B2, “Sulfonyl amidine as indoleamine-2,3-dioxygenase inhibitor, and preparation method therefor and use thereof” (SHANGHAI LONGWOOD BIOPHARMACEUTICALS CO., LTD., priority 2016, dated 2022) come the findings set out here.

Broadly, the AUC(0-t) is exposure summed from dosing to a finite time, without extrapolation to infinity. In general, AUC(0-inf) refers to the area under the concentration-time curve extrapolated to infinity. Low readings indicate low exposure, high ones high exposure. In general, clearance refers to a measure of how efficiently the substance is removed, as volume per time. A high value points to efficient removal. The term Tmax denotes the time at which the peak concentration occurs. One may read the bioavailability as dose-corrected exposure relative to a reference, in per cent. The Cmax is the highest concentration seen after dosing. The term IC50 denotes the concentration needed to halve the response being measured.

T1 sequence (P14902 whole entry): as above

For the compound `CS(=N)(=O)NCCNc1nonc1C(=NO)Nc1ccc(F)c(Br)c1` (racemic) [LW105-1-1], the AUC(0-t) in series [1] (iv, 3 mg/kg, intravenous 3 mg/kg) was 1430 ng·h/mL; in series [1] (po, 30 mg/kg, oral gavage 30 mg/kg), 10100 ng·h/mL; in series [1] (po, 100 mg/kg, oral gavage 100 mg/kg), 39400 ng·h/mL. Moreover, the half-life is 0.688 h in series [1] (mouse, 3 mg/kg, heading: T1/2, intravenous 3 mg/kg); 2.7 h in series [1] (mouse, oral gavage 30 mg/kg, read-out: T1/2 (converted)); 2.11 h in series [1] (mouse, oral gavage 100 mg/kg, read-out: T1/2 (converted)). Further, the AUC(0-inf) in series [1] (mouse, intravenous 3 mg/kg) is 1450 ng·h/mL; in series [1] (mouse, oral gavage 30 mg/kg) it was 10100 ng·h/mL; in series [1] (mouse, oral gavage 100 mg/kg), 39300 ng·h/mL. The compound also registered a C0 in series [1] (mouse, intravenous 3 mg/kg) of 2560 ng/mL. This compound returned a clearance in series [1] (mouse, intravenous 3 mg/kg) of 34.5 mL/min/kg. Further, the MRT last in series [1] (mouse, intravenous 3 mg/kg) turned out to be 0.904 h; in series [1] (mouse, oral gavage 30 mg/kg), 3.11 h; in series [1] (mouse, oral gavage 100 mg/kg) it was 1.99 h. Also, in series [1] (mouse, intravenous 3 mg/kg, read-out: steady-state volume (Vdss)), the Vd came to 1.87 L/kg. For the same compound, the Tmax in series [1] (mouse, oral gavage 30 mg/kg) was 0.5 h; in series [1] (mouse, oral gavage 100 mg/kg), 0.25 h. Besides, the bioavailability in series [1] (mouse, oral gavage 30 mg/kg) stood at 69.9%; in series [1] (mouse, oral gavage 100 mg/kg) it was 81.4%. Also, the Cmax stood at 4810 ng/mL in series [1] (mouse, oral gavage 30 mg/kg) and 20700 ng/mL in series [1] (mouse, oral gavage 100 mg/kg). The IC50 turned out to be 22.3 nM on IDO1 and 11.5 nM against IDO1 in Hela cells. Moreover, the tumor inhibition rate in series [2] (mouse CT26 model, 300 mg/kg oral twice a day) is given as 40.6%. In addition, the anti-tumor growth effect entry in series [2] (mouse CT26 model, 30, 100, 300 mg/kg oral) is “dose-dependent anti-tumor growth effect”.

As for `CCS(=N)(=O)NCCNc1nonc1C(=NO)Nc1ccc(F)c(Br)c1` (stereo not drawn) [LW105-1-2], the IC50 at IDO1 turned out to be 25.2 nM; against IDO1 in Hela cells, 15.6 nM.

As for `CC(C)S(=N)(=O)NCCNc1nonc1C(=NO)Nc1ccc(F)c(Br)c1` (stereo not drawn) [LW105-1-3], the results for the IC50 on IDO1 and against IDO1 in Hela cells were 19.4 nM and 12.7 nM, respectively.

With `N=S(=O)(NCCNc1nonc1C(=NO)Nc1ccc(F)c(Br)c1)C1CC1` (stereo not drawn) [LW105-1-4], the IC50 at IDO1 came to 29.4 nM; at IDO1 in Hela cells, 7.2 nM.

As to `CS(=N)(=O)NCCCNc1nonc1C(=NO)Nc1ccc(F)c(Br)c1` (stereo not drawn) [LW105-1-11], the IC50 at IDO1 was 26.5 nM; against IDO1 in Hela cells, 11.1 nM.
